According to US20240217978A1 (CHONG KUN DANG PHARMACEUTICAL CORP., priority 2021, published 2024):

Target: human adenosine A2a receptor (Homo sapiens (Human), UniProt P29274)
Assay: A2a receptor binding affinity, [3H]-NECA radioligand binding test
Details: [3H]-NECA 37 nM; membrane from HEK-293 cells transfected with human adenosine A2a receptor
Outline: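 IC50 values (μM) come from displacement of [3H]-NECA, used at 37 nM final, on human A2a receptor membranes from transfected HEK-293 cells. Incubation lasted one hour at room temperature in Tris/MgCl2/EDTA buffer, pH 7.4; filter-bound radioactivity was counted by scintillation.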

Chain of human adenosine A2a receptor (P29274 whole entry): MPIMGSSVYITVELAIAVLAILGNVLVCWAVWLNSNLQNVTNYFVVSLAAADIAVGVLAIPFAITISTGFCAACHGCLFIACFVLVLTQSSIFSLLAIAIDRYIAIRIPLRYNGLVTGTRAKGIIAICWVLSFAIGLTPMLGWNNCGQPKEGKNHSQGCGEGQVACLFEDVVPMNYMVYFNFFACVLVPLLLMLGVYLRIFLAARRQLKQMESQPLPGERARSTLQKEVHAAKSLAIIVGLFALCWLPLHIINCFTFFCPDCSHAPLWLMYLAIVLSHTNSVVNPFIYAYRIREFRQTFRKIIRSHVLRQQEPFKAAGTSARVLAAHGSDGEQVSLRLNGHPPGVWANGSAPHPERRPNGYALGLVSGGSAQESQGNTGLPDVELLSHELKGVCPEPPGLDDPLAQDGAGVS

IC50 [nM]	Structure (SMILES)
12	Nc1nc(N2CCC[C@H]2C(=O)N2CC3(CCN(CC(F)(F)F)CC3)C2)nc2nc(-c3ccco3)nn12 [Example 363, (S)-(1-(7-amino-2-(furan-2-yl)-[1,2,4]triazolo[1,5-a][1,3,5]triazin-5-yl)pyrrolidin-2-yl)(7-(2,2,2-trifluoroethyl)-2,7-diazaspiro[3-5]nonan-2-yl)methanone]
3	Nc1nc(N2CCC[C@H]2C(=O)N2CCN(c3ccc(F)cc3F)CC2)nc2nc(-c3nccs3)nn12 [Example 67, (S)-(1-(7-amino-2-(thiazol-2-yl)-[1,2,4]triazolo[1,5-a][1,3,5]triazin-5-yl)pyrrolidin-2-yl)(4-(2,4-difluorophenyl)piperazin-1-yl)methanone]
3	Nc1nc(N2CCC[C@H]2C(=O)N2CCN(CC(F)(F)F)CC2)nc2sc(-c3ccco3)nc12 [Example 238, (S)-(1-(7-amino-2-(furan-2-yl)thiazolo[5,4-d]pyrimidin-5-yl)pyrrolidin-2-yl)(4-(2,2,2-trifluoroethyl)piperazin-1-yl)methanone]
2	Nc1nc(N2CCC[C@H]2C(=O)N2CCN(C(=O)C3(C(F)(F)F)CCCC3)CC2)nc2nc(-c3ccco3)nn12 [Example 76]
8	Nc1nc(N2CCC[C@H]2C(=O)N2CCN(C3CCC(F)(F)CC3)CC2)nc2nc(-c3ccco3)nn12 [Example 56, (S)-(1-(7-amino-2-(furan-2-yl)-[1,2,4]triazolo[1,5-a][1,3,5]triazin-5-yl)pyrrolidin-2-yl)(4-(4,4-difluorocyclohexyl)piperazin-1-yl)methanone]
2	CCCCN1CCN(C(=O)[C@@H]2CCCN2c2nc(N)n3nc(-c4ccco4)nc3n2)CC1=O [Example 247, 4-((7-amino-2-(furan-2-yl)-[1,2,4]triazolo[1,5-a][1,3,5]triazin-5-yl)-L-prolyl)-1-butylpiperazin-2-one]
39	Nc1nc(N2CCC[C@H]2C(=O)N2CCN(CC(F)F)CC2)nc2oc(-c3ccco3)nc12 [Example 269, (S)-(1-(7-amino-2-(furan-2-yl)oxazolo[5,4-d]pyrimidin-5-yl)pyrrolidin-2-yl)(4-(2,2-difluoroethyl)piperazin-1-yl)methanone]
3	Nc1nc(N2CCC[C@H]2C(=O)N2CCN(c3ncccn3)CC2)nc2nc(-c3ccco3)nn12 [Example 127, (S)-(1-(7-amino-2-(furan-2-yl)-[1,2,4]triazolo[1,5-a][1,3,5]triazin-5-yl)pyrrolidin-2-yl)(4-(pyrimidin-2-yl)piperazin-1-yl)methanone]
3	CCC(O)(CC)CN1CCN(C(=O)[C@@H](Nc2nc(N)n3nc(-c4ccco4)nc3n2)C2CCCCC2)CC1 [Example 185, (S)-2-((7-amino-2-(furan-2-yl)-[1,2,4]triazolo[1,5-a][1,3,5]triazin-5-yl)amino)-2-cyclohexyl-1-(4-(2-ethyl-2-hydroxybutyl)piperazin-1-yl)ethan-1-one]
8	Nc1nc(N[C@H](C(=O)N2CCN(CC(F)(F)F)CC2)C2CCCCC2)nc2nc(-c3ccco3)nn12 [Example 148, (S)-2-((7-amino-2-(furan-2-yl)-[1,2,4]triazolo[1,5-a][1,3,5]triazin-5-yl)amino)-2-cyclohexyl-1-(4-(2,2,2-trifluoroethyl)piperazin-1-yl)ethan-1-one]
4	CC(C)(O)CC(=O)N1CCN(C(=O)[C@@H](Nc2nc(N)n3nc(-c4ccco4)nc3n2)C2CC2)CC1 [Example 370, (S)-1-(4-(2-((7-amino-2-(furan-2-yl)-[1,2,4]triazolo[1,5-a][1,3,5]triazin-5-yl)amino)-2-cyclopropylacetyl)piperazin-1-yl)-3-hydroxy-3-methylbutan-1-one]
8	CC(C)(O)C(=O)N1CCN(C(=O)[C@@H]2CCCN2c2nc(N)n3nc(-c4ccco4)nc3n2)CC1 [Example 274, 1-(4-((7-amino-2-(furan-2-yl)-[1,2,4]triazolo[1,5-a][1,3,5]triazin-5-yl)-L-prolyl)piperazin-1-yl)-2-hydroxy-2-methylpropan-1-one]
4390	Nc1nc(N2CCC[C@@H]2C(=O)N2CCN(CC(F)(F)F)CC2)nc2nc(-c3ccco3)nn12 [Example 94, (R)-(1-(7-amino-2-(furan-2-yl)-[1,2,4]triazolo[1,5-a][1,3,5]triazin-5-yl)pyrrolidin-2-yl)(4-(2,2,2-trifluoroethyl)piperazin-1-yl)methanone]
10	Nc1nc(N2CC[C@H]2C(=O)N2CCN(CC(=O)N3CCOCC3)CC2)nc2nc(-c3ccco3)nn12 [Example 65, (S)-2-(4-(1-(7-amino-2-(furan-2-yl)-[1,2,4]triazolo[1,5-a][1,3,5]triazin-5-yl)azetidine-2-carbonyl)piperazin-1-yl)-1-morpholinoethan-1-one]
13	Nc1nc(N2CC[C@H]2C(=O)N2CCN(C(=O)c3ccccc3)CC2)nc2nc(-c3ccco3)nn12 [Example 109, (S)-(1-(7-amino-2-(furan-2-yl)-[1,2,4]triazolo[1,5-a][1,3,5]triazin-5-yl)azetidin-2-yl)(4-benzoylpiperazin-1-yl)methanone]
10	Cc1ccc(-c2nc3nc(N4CC[C@H]4C(=O)N4CCN(Cc5ccccc5)CC4)nc(N)n3n2)o1 [Example 218, (S)-(1-(7-amino-2-(5-methylfuran-2-yl)-[1,2,4]triazolo[1,5-a][1,3,5]triazin-5-yl)azetidin-2-yl)(4-benzylpiperazin-1-yl)methanone]
9	CC(F)(F)CN1CCN(C(=O)[C@@H](Nc2nc(N)n3nc(-c4ccco4)nc3n2)C2CC2)CC1 [Example 357, (S)-2-((7-amino-2-(furan-2-yl)-[1,2,4]triazolo[1,5-a][1,3,5]triazin-5-yl)amino)-2-cyclopropyl-1-(4-(2,2-difluoropropyl)piperazin-1-yl)ethan-1-one]
1	Cc1ccc(-c2nc3nc(N4CCC[C@H]4C(=O)N4CCN(c5ccc(F)cc5F)CC4)nc(N)n3n2)o1 [Example 87, (S)-(1-(7-amino-2-(5-methylfuran-2-yl)-[1,2,4]triazolo[1,5-a][1,3,5]triazin-5-yl)pyrrolidin-2-yl)(4-(2,4-difluorophenyl)piperazin-1-yl)methanone]
1	C[C@H](Nc1nc(N)n2nc(-c3ccco3)nc2n1)C(=O)N1CCC(C2CCN(CC(C)(F)F)CC2)CC1 [Example 335, (S)-2-((7-amino-2-(furan-2-yl)-[1,2,4]triazolo[1,5-a][1,3,5]triazin-5-yl)amino)-1-(1′-(2,2-difluoropropyl)-[4,4′-bipiperidin]-1-yl)propan-1-one]
16	CCCC[C@H](Nc1nc(N)n2nc(-c3ccco3)nc2n1)C(=O)N1CCN(CCCC)CC1 [Example 173, (S)-2-((7-amino-2-(furan-2-yl)-[1,2,4]triazolo[1,5-a][1,3,5]triazin-5-yl)amino)-1-(4-butylpiperazin-1-yl)hexan-1-one]

Structure (SMILES)	IC50 [nM]
Nc1nc(N2CCC[C@H]2C(=O)N2C3CCC2CN(C(=O)c2ccccc2)C3)nc2nc(-c3ccco3)nn12 [Example 158, (8-((7-amino-2-(furan-2-yl)-[1,2,4]triazolo[1,5-a][1,3,5]triazin-5-yl)-L-prolyl)-3,8-diazabicyclo[3.2.1]octan-3-yl)(phenyl)methanone]	12
